Assay results reported in US12195457B2, “Aromatic ring derivative as immunoregulation and preparation method and application of aromatic ring derivative” (SHANGHAI JEMINCARE PHARMACEUTICALS CO., LTD, priority 2018, dated 2025).

Legend:
S1P1 [1] = target: T1, S1P1 (Homo sapiens, UniProt P21453); assay: S1P1 mediated inhibition of forskolin induced cAMP (PathHunter CHO-K1 EDG1 cells); format: cell-based
T1 construct: host or cells: CHO-K1
Procedure: The cell line used in the test was PathHunter® CHO-K1 EDG1 β-Arrestin Cell Line, supplier: DiscoverX, catalog number: 93-0207C2. The inhibitory effect of compounds on S1P1 mediated forskolin induced cAMP activity was evaluated.
Different concentrations of compounds and a final concentration of 0.6 μM forskolin were added to the test plate wells for each test, and the mixture was centrifuged at 1000 rpm for 10 seconds. A frozen cell was taken, washed twice with HBSS buffer and resuspended. 5000 cells were added to test plates per well, the mixture was shaked for 20 seconds, centrifuged at 1000 rpm for 10 seconds, and incubated at room temperature for 60 minutes. Anti-cAMP-Eu^2+-Cryptate and cAMP-d2 were added. Then the mixture was shaked for 20 seconds, centrifuged at 1000 rpm for 10 seconds, incubated at room temperature for 60 minutes, and the plate was read on an Envision plate reader. The data was analyzed by nonlinear regression to determine the EC50 of the compounds for the inhibition of cAMP induced by forskolin.

S1P1 [2] = target: T1, S1P1; assay: S1P1 mediated β-arrestin reporter activation (PathHunter CHO-K1 EDG1 β-Arrestin Cell Line); format: cell-based; conditions: 90 minutes incubation at 37° C.
Procedure: The cell line used in the test was PathHunter® CHO-K1 EDG1 β-Arrestin Cell Line, supplier: DiscoverX, catalog number: 93-0207C2. According to the supplier's instructions, the cells were added to the test plate according to 25 μL cell suspension containing 5000 cells per well, and cultured at 37° C. for 20 hours. Compounds of 10 concentrations diluted 4 times were added to the cell culture medium and incubated at 37° C. for 90 minutes. The detection solution was prepared, 12 μL per well, incubated at room temperature for 60 minutes, the plate was read on an Envision plate reader. The data was analyzed by nonlinear regression to determine the EC50 of β-arrestin activity.

S1P1 [3] = target: T1, S1P1; assay: S1P1 receptor internalization (FACS, CHO-K1 EDG1 cells); format: cell-based; conditions: 2 hours incubation; read-out: S1P1 internalized EC50
Procedure: 1. CHO-K1 DEG1 cells (PathHunter® CHO-K1 EDG1 β-Arrestin Cell Line, supplier: DiscoverX, catalog number: 93-0207C2), and culture medium was removed (F12 medium 1000 mL, 10% FBS, 800 μg/mL G418, 300 μg/mL Hygromycin, 1% Glutamax and 1% Pen/Strep), the cells were washed with 2 mL of DPBS, 5 mL of cell dispersion (Invitrogen-13151014) was added to disperse the cells, the cells were incubated in an incubator at 37° C. for 1-2 minutes. The flask was gently patted to make the cells fall off. 5 mL of growth medium was added, and pipette was gently blown to suspend the cells. Cell counting was performed using Vi-Cell. The mixture was centrifuged at 1000 rpm for 5 minutes at room temperature, the supernatant was gently poured out, and the cells in FACS buffer were resuspended to a concentration of 1.5e6 cells per mL. 2. S1P and compounds were diluted with DMSO in a 384-well plate, and a volume of 500 nL was transferred to a 96 V-well plate (Cat #Axygen-WIPP02280). 3. 50 μL of cells were added to a 96-well plate; 4. The 96-well plate was incubated in a 37° C. 5% CO2 incubator for 2 hours. 5. The cells were centrifuged at room temperature at 1500 rpm for 5 minutes to remove the supernatant. 6. 100 μL of FACS buffer was added to the resuspended cells, centrifuged at 1500 rpm for 5 minutes, and the supernatant was removed. 7. The anti-human S1P1/EDG-1-Alex647 (R&D-FAB1864R) and anti-IgG2B-Alex647 (R&D-IC0041R) antibodies were diluted 200 times with FACS buffer. 8. 50 μL of antibody was added to 96 wells, and the plates were transferred to 4° C. for 30 minutes. 9. The cells were centrifuged at room temperature at 1500 rpm for 5 minutes to remove the supernatant. 10. 100 μL of FACS buffer was added to the resuspended cells. 11. The cells were centrifuged at 4° C. at 1500 rpm for 5 minutes to remove the supernatant. 12. After washing, the cells were resuspended in 50 μL of FACS buffer per well. 13. Cell samples were read using iQue Screener PLUS-VBR.

[4] = In vivo pharmacokinetics in rats, intravenous injection and oral administration; set-up: species or system Sprague Dawley rats; conditions: rat; for AUC(0-inf) / clearance / half-life / Cmax: male, Sprague-Dawley, plasma
Procedure: In this experimental embodiment, in vivo pharmacokinetic evaluation was performed in rats by intravenous injection and oral administration.
Experimental methods and conditions: male Sprague Dawley rats were given the test compounds 1 mg/kg (solvent 5% DMSO/15% Solutol/80% Saline) by intravenous injection and 1 mg/kg (solvent 0.5% MC) by oral gavage respectively. 5 min, 15 min, 30 min, 1 hr, 2 hr, 4 hr, 6 hr, 8 hr, 24 hr after administration, blood was collected from submandibular vein, each sample was collected about 0.20 mL, and heparin sodium was used for anti coagulation. After collection, the sample was placed on ice, and the blood was centrifuged to be measured within one hour. Blood drug concentration in plasma was detected by liquid chromatography tandem mass spectrometry (LC/MS/MS), and the pharmacokinetic parameters were calculated by Phoenix WinNonlin software.

[5] = intravenous administration 1 mg/kg

T1 sequence (P21453 whole entry): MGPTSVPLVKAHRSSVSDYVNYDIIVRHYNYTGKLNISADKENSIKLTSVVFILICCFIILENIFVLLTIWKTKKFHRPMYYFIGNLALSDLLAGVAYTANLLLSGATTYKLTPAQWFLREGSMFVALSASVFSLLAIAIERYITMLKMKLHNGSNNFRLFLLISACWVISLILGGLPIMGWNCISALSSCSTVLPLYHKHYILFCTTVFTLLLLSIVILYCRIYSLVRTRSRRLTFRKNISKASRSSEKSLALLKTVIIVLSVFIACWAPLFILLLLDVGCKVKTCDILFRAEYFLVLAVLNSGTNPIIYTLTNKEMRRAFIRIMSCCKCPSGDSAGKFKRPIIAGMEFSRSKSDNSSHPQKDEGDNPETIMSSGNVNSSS

EC50 (S1P1 [1]) [nM]	EC50 (S1P1 [2]) [nM]	SMILES	also measured
0.5	–	O=C(O)CCn1cnc2cc(OCc3ccc(C4CCCC4)c(C(F)(F)F)c3)ccc21 [Compound 4]	–
0.057	1.1	O=C(O)CCc1[nH]c2ccc(OCc3ccc(C4CCOC4)c(C(F)(F)F)c3)cc2c1F (centres unmarked) [Compound 33]	–
–	2.08	O=C(O)CCc1cc2cc(OCc3ccc(N4CCCC4)c(C(F)(F)F)c3)ccc2[nH]1 [Compound 28]	–
–	1.18	Cc1c(CCC(=O)O)[nH]c2ccc(OCc3cnc(C4CCCC4)c(C(F)(F)F)c3)cc12 [Compound 40]	–
0.34	0.88	Cc1c(CCC(=O)O)[nH]c2ccc(OCc3ccc(C4CCOCC4)c(C(F)(F)F)c3)cc12 [Compound 35]	–
0.2	1.72	O=C(O)CCc1cc2cc(OCc3ccc(OC4CCCC4)c(C(F)(F)F)c3)ccc2[nH]1 [Compound 37]	–
< 0.05	0.95	O=C(O)CCc1cc2cc(OCc3ccc(C4CCCC4)c(C(F)(F)F)c3)ccc2[nH]1 [Compound 1]	–
0.15	0.62	O=C(O)CCc1[nH]c2ccc(OCc3cnc(C4CCCC4)c(C(F)(F)F)c3)cc2c1F [Compound 30]	–
2.07	–	O=C(O)C[C@H]1CCc2c1[nH]c1ccc(OCc3ccc(C4CCCC4)c(C(F)(F)F)c3)cc21 [APD334, reference compound]	EC50 (S1P1 [3]): 6.26 nM; AUC(0-inf) [4, 5]: 9410 ng·h/mL; clearance [4, 5]: 1.83 mL/min/kg; half-life [4, 5]: 5.2 h; AUC(0-inf) ([4]; oral administration 1 mg/kg): 4440 ng·h/mL; Cmax ([4]; oral administration 1 mg/kg): 341 ng/mL; half-life ([4]; oral administration 1 mg/kg): 5.5 h; F ([4]; oral administration 1 mg/kg): 46.3%
0.56	1.47	Cc1c(CCC(=O)O)[nH]c2ccc(OCc3ccc(C4CCOC4)c(C(F)(F)F)c3)cc12 (centres unmarked) [Compound 32]	–
0.027	0.76	O=C(O)CCc1[nH]c2ccc(OCc3ccc(OC4CCCC4)c(C(F)(F)F)c3)cc2c1F [Compound 39]	–
0.11	1.65	O=C(O)CCc1[nH]c2ccc(OCc3ccc(C4CCC4)c(C(F)(F)F)c3)cc2c1Cl [Compound 22]	–
0.0021	1.03	O=C(O)CCc1[nH]c2ccc(OCc3ccc(C4CCOCC4)c(C(F)(F)F)c3)cc2c1Cl [Compound 27]	–
–	5.35	O=C(O)CCc1cc2cc(OCc3ccc(C4CCOCC4)c(C(F)(F)F)c3)ccc2[nH]1 [Compound 34]	–
–	1.11	Cc1c(CCC(=O)O)[nH]c2ccc(OCc3ccc(OC4CCCC4)c(C(F)(F)F)c3)cc12 [Compound 38]	–
0.65	1.96	O=C(O)CCn1ccc2cc(OCc3ccc(C4CCCC4)c(C(F)(F)F)c3)ccc21 [Compound 12]	–
0.07	1.86	O=C(O)CCc1[nH]c2ccc(OCc3ccc(C4CCCC4)c(C(F)(F)F)c3)cc2c1F [Compound 14]	EC50 (S1P1 [3]): 0.14 nM; AUC(0-inf) [4, 5]: 10800 ng·h/mL; clearance [4, 5]: 1.55 mL/min/kg; half-life [4, 5]: 4.1 h; AUC(0-inf) ([4]; oral administration 1 mg/kg): 2340 ng·h/mL; Cmax ([4]; oral administration 1 mg/kg): 258 ng/mL; half-life ([4]; oral administration 1 mg/kg): 4 h; F ([4]; oral administration 1 mg/kg): 21.3%
0.21	1.78	N#Cc1c(CCC(=O)O)[nH]c2ccc(OCc3ccc(C4CCCC4)c(C(F)(F)F)c3)cc12 [Compound 17]	–
0.0041	1.11	O=C(O)CCc1[nH]c2ccc(OCc3ccc(C4CCOC4)c(C(F)(F)F)c3)cc2c1Cl (centres unmarked) [Compound 26]	–
0.035	2.26	O=C(O)CCc1[nH]c2ccc(OCc3ccc(C4=CCCC4)c(C(F)(F)F)c3)cc2c1Cl [Compound 21]	–
0.0017	1.23	O=C(O)CCc1[nH]c2ccc(OCc3cnc(C4CCCC4)c(C(F)(F)F)c3)cc2c1Cl [Compound 25]	–
0.032	3.82	O=C(O)CCc1[nH]c2ccc(OCc3ccc(C4CCCCC4)c(C(F)(F)F)c3)cc2c1Cl [Compound 23]	–
0.16	–	O=C(O)CCc1nc2cc(OCc3ccc(C4CCCC4)c(C(F)(F)F)c3)ccc2[nH]1 [Compound 6]	–
–	2.15	O=C(O)CCc1cc2cc(OCc3cnc(C4CCCC4)c(C(F)(F)F)c3)ccc2[nH]1 [Compound 29]	–
0.0072	1.73	O=C(O)CCc1[nH]c2ccc(OCc3ccc(OC4CCCC4)c(C(F)(F)F)c3)cc2c1Cl [Compound 24]	–
0.3	0.85	O=C(O)CCc1[nH]c2ccc(OCc3ccc(C4CCOCC4)c(C(F)(F)F)c3)cc2c1F [Compound 36]	–
0.08	1.1	O=C(O)CCc1cc2cc(OCc3ccc(C4CCCC4)c(C(F)(F)F)c3)c(F)cc2[nH]1 [Compound 18]	EC50 (S1P1 [3]): 0.69 nM
0.07	1.62	CCc1c(CCC(=O)O)[nH]c2ccc(OCc3ccc(C4CCCC4)c(C(F)(F)F)c3)cc12 [Compound 2]	EC50 (S1P1 [3]): 0.32 nM
0.18	2.63	O=C(O)CCc1cc2cc(OCc3ccc(C4CCOC4)c(C(F)(F)F)c3)ccc2[nH]1 (centres unmarked) [Compound 31]	–
